Assay results from the supplement of paper PMC10307832.

Legend:
Experiment in all cases: relative viability (nuclei count vs DMSO), 5 days (fraction); higher = more cells survive
NCI-H1355 = test system: NCI-H1355
Outline: (§1)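 Relative viability equals treated-well nuclei counts divided by vehicle-well nuclei counts. Counts came from 4× images of lung cancer cell lines grown in 1536-well plates for 5 days after pin-tool dosing on the day after seeding. Dosing used one drug alone or a fixed anchor-drug dose plus five library-drug doses (not always all listed) in √10 steps, and values are medians of duplicate plates.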

LCLC-103H = test system: LCLC-103H
Outline: as §1

HCC-827 = test system: HCC-827
Outline: as §1

LCLC-97TM1 = test system: LCLC-97TM1
Outline: as §1

NCI-H2405 = test system: NCI-H2405
Outline: as §1

SK-LU-1 = test system: SK-LU-1
Outline: as §1

NCI-H1395 = test system: NCI-H1395
Outline: as §1

NCI-H2087 = test system: NCI-H2087
Outline: as §1

NCI-H3122 = test system: NCI-H3122
Outline: as §1

CAL-12T = test system: CAL-12T
Outline: as §1

NCI-H322M = test system: NCI-H322M
Outline: as §1

NCI-H1437 = test system: NCI-H1437
Outline: as §1

201T = test system: 201T
Outline: as §1

BEN = test system: BEN
Outline: as §1

NCI-H2023 = test system: NCI-H2023
Outline: as §1

NCI-H1793 = test system: NCI-H1793
Outline: as §1

NCI-H647 = test system: NCI-H647
Outline: as §1

NCI-H2228 = test system: NCI-H2228
Outline: as §1

NCI-H727 = test system: NCI-H727
Outline: as §1

HOP-62 = test system: HOP-62
Outline: as §1

NCI-H1650 = test system: NCI-H1650
Outline: as §1

LXF-289 = test system: LXF-289
Outline: as §1

RERF-LC-KJ = test system: RERF-LC-KJ
Outline: as §1

HCC-44 = test system: HCC-44
Outline: as §1

SMILES: CC(C)Oc1cc(Nc2nc(N[C@@H](C)c3ccc(F)cn3)ncc2Cl)n[nH]1 [AZ23] + CCNC(=O)c1noc(-c2cc(C(C)C)c(O)cc2O)c1-c1ccc(CN2CCOCC2)cc1 [Luminespib] (partner 0.01 µM)
- relative viability (NCI-H1355; first compound 0.01 µM): 0.671
- relative viability (NCI-H1355; first compound 0.03162 µM): 0.768
- relative viability (NCI-H1355; first compound 0.3162 µM): 0.715
- relative viability (LCLC-103H; first compound 0.01 µM): 1.04
- relative viability (LCLC-103H; first compound 0.03162 µM): 0.923
- relative viability (LCLC-103H; first compound 0.3162 µM): 1.03
- relative viability (HCC-827; first compound 0.01 µM): 0.372
- relative viability (HCC-827; first compound 0.03162 µM): 0.74
- relative viability (HCC-827; first compound 0.3162 µM): 0.649
- relative viability (LCLC-97TM1; first compound 0.01 µM): 0.846
- relative viability (LCLC-97TM1; first compound 0.03162 µM): 0.783
- relative viability (LCLC-97TM1; first compound 0.3162 µM): 0.796
- relative viability (NCI-H2405; first compound 0.01 µM): 0.717
- relative viability (NCI-H2405; first compound 0.03162 µM): 0.679
- relative viability (NCI-H2405; first compound 0.3162 µM): 0.661
- relative viability (SK-LU-1; first compound 0.03162 µM): 0.216
- relative viability (SK-LU-1; first compound 0.3162 µM): 0.18
- relative viability (NCI-H1395; first compound 0.03162 µM): 0.658
- relative viability (NCI-H1395; first compound 0.3162 µM): 0.771
- relative viability (NCI-H2087; first compound 0.01 µM): 0.151
- relative viability (NCI-H2087; first compound 0.03162 µM): 0.171
- relative viability (NCI-H2087; first compound 0.3162 µM): 0.169
- relative viability (NCI-H3122; first compound 0.01 µM): 0.111
- relative viability (NCI-H3122; first compound 0.03162 µM): 0.0892
- relative viability (NCI-H3122; first compound 0.3162 µM): 0.0986
- relative viability (CAL-12T; first compound 0.03162 µM): 0.364
- relative viability (CAL-12T; first compound 0.3162 µM): 0.568
- relative viability (NCI-H322M; first compound 0.03162 µM): 0.879
- relative viability (NCI-H322M; first compound 0.3162 µM): 1.08
- relative viability (NCI-H1437; first compound 0.01 µM): 1.29
- relative viability (NCI-H1437; first compound 0.03162 µM): 1.25
- relative viability (NCI-H1437; first compound 0.3162 µM): 1.2
- relative viability (201T; first compound 0.01 µM): 1.15
- relative viability (201T; first compound 0.03162 µM): 1.02
- relative viability (201T; first compound 0.3162 µM): 1.02
- relative viability (BEN; first compound 0.01 µM): 0.287
- relative viability (BEN; first compound 0.03162 µM): 0.378
- relative viability (BEN; first compound 0.3162 µM): 0.243
- relative viability (NCI-H2023; first compound 0.03162 µM): 0.829
- relative viability (NCI-H2023; first compound 0.3162 µM): 0.674
- relative viability (NCI-H1793; first compound 0.01 µM): 0.158
- relative viability (NCI-H1793; first compound 0.03162 µM): 0.194
- relative viability (NCI-H1793; first compound 0.3162 µM): 0.143
- relative viability (NCI-H647; first compound 0.01 µM): 0.125
- relative viability (NCI-H647; first compound 0.03162 µM): 0.107
- relative viability (NCI-H647; first compound 0.3162 µM): 0.149
- relative viability (NCI-H2228; first compound 0.01 µM): 0.179
- relative viability (NCI-H2228; first compound 0.03162 µM): 0.141
- relative viability (NCI-H2228; first compound 0.3162 µM): 0.0999
- relative viability (NCI-H727; first compound 0.01 µM): 0.354
- relative viability (NCI-H727; first compound 0.03162 µM): 0.311
- relative viability (NCI-H727; first compound 0.3162 µM): 0.454
- relative viability (HOP-62; first compound 0.01 µM): 0.841
- relative viability (HOP-62; first compound 0.03162 µM): 0.981
- relative viability (HOP-62; first compound 0.3162 µM): 1.01
- relative viability (NCI-H1650; first compound 0.03162 µM): 0.202
- relative viability (NCI-H1650; first compound 0.3162 µM): 0.195
- relative viability (LXF-289; first compound 0.01 µM): 0.884
- relative viability (LXF-289; first compound 0.03162 µM): 0.745
- relative viability (LXF-289; first compound 0.3162 µM): 0.598
- relative viability (RERF-LC-KJ; first compound 0.01 µM): 1.34
- relative viability (RERF-LC-KJ; first compound 0.03162 µM): 1.43
- relative viability (RERF-LC-KJ; first compound 0.3162 µM): 1.38
- relative viability (HCC-44; first compound 0.01 µM): 0.863
- relative viability (HCC-44; first compound 0.03162 µM): 1.22
- relative viability (HCC-44; first compound 0.3162 µM): 1.22
